From patent publication US20210255193A1, “LYSINE REACTIVE PROBES AND USES THEREOF” (The Scripps Research Institute, priority 2017, published 2021)
One block for each compound: values may come before it.

Tests used:
Test in all cases: competitive isoTOP-ABPP
Type in all cases: binding
[1] = target: T1, ETFA Electron transfer flavoprotein subunit alpha, mitochondrial (Homo sapiens, UniProt P13804); conditions: for isoTOP-ABPP ratio, lysine P13804_K139: 50 uM_231_sol_in vitro
T1 construct: isoTOP-ABPP experiments performed in cell lysates (in vitro); endogenous in cells; host or cells: soluble proteome of human cancer cell lines (MDA-MB-231; Ramos and Jurkat also prepared)
T1 sequence (P13804 20-333): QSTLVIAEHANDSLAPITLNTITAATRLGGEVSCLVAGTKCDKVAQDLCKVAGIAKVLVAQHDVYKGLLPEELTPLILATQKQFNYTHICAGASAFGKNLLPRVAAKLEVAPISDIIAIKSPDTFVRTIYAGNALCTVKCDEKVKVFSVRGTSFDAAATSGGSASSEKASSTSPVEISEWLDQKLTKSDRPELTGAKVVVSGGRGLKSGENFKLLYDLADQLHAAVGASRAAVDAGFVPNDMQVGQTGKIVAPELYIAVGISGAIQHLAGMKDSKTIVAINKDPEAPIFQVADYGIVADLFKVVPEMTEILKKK
T1 sequence (P38117 2-255 partner limits assumed): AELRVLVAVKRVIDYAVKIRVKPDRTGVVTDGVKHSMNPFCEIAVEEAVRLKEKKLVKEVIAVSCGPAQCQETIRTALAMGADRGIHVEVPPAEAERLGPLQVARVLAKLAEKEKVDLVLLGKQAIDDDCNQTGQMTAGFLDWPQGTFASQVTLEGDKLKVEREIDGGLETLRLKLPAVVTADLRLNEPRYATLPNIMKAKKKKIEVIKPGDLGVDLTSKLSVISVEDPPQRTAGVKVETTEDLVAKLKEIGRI
Method in brief: (§1)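 Readout: isotopic light/heavy MS1 peak-area ratio (R, DMSO heavy over compound light), median across peptides sharing a modified lysine. Lysate received fragment (activated esters 50 μM, guanidinylating agents 100 μM final) or DMSO, then 0.1 mM STP-alkyne probe for 1 h at ambient temperature.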

[2] = target: T2, MRPL12 39S ribosomal protein L12, mitochondrial (Homo sapiens, UniProt P52815); conditions: for isoTOP-ABPP ratio, lysine P52815_K87: 50 uM_231_sol_in vitro, possible other lysine B4DLN1_K87, P52815_K91
T2 construct: isoTOP-ABPP experiments performed in cell lysates (in vitro); endogenous in cells; host or cells: soluble proteome of human cancer cell lines (MDA-MB-231, Ramos, Jurkat)
Method in brief: as §1

[3] = target: T3, LRRC20 Leucine-rich repeat-containing protein 20 (Homo sapiens, UniProt Q8TCA0); conditions: for R value (DMSO/fragment) for probe 1 labeling: Q8TCA0_K43; for R value (DMSO/fragment) for probe 1 labeling / isoTOP-ABPP reactivity ratio at lysine Q8TCA0_K43: 231 sol
T3 construct: isoTOP-ABPP experiments performed in cell lysates (in vitro); endogenous in cells; host or cells: soluble proteome of human cancer cell lines (MDA-MB-231; Ramos and Jurkat also prepared)
T3 sequence (Q8TCA0 1-184): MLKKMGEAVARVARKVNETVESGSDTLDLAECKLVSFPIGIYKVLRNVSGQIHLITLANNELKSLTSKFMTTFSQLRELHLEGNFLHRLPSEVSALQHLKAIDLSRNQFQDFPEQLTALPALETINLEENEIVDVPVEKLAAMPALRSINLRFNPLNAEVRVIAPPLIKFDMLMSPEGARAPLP
Method in brief: as §1

[4] = target: T4, ATP6V1F V-type proton ATPase subunit F (Homo sapiens, UniProt Q16864)
T4 construct: isoTOP-ABPP experiments performed in cell lysates (in vitro); endogenous in cells; host or cells: soluble proteome of human cancer cell lines (MDA-MB-231; Ramos and Jurkat also prepared)
Method in brief: as §1

[5] = target: T5, CDK2 Cyclin-dependent kinase 2 (Homo sapiens, UniProt P24941); conditions: 50 uM, in vitro
T5 construct: isoTOP-ABPP experiments performed in cell lysates (in vitro); endogenous in cells; host or cells: soluble proteome of human cancer cell lines (MDA-MB-231; Ramos and Jurkat also prepared)
Method in brief: as §1

[6] = target: T6, EEF1G Elongation factor 1-gamma (Homo sapiens, UniProt P26641)
T6 construct: isoTOP-ABPP experiments performed in cell lysates (in vitro); endogenous in cells; host or cells: soluble proteome of human cancer cell lines (MDA-MB-231; Ramos and Jurkat also prepared)
Method in brief: as §1

[7] = target: T7, IMPDH1 Inosine-5-monophosphate dehydrogenase 1 (Homo sapiens, UniProt P20839)
T7 construct: isoTOP-ABPP experiments performed in cell lysates (in vitro); endogenous in cells; host or cells: soluble proteome of human cancer cell lines (MDA-MB-231; Ramos and Jurkat also prepared)
Method in brief: as §1

T4 sequence (Q16864 whole entry): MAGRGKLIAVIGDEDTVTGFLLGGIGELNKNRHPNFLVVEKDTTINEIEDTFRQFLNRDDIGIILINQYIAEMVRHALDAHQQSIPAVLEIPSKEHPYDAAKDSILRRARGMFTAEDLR
T6 sequence (P26641 whole entry): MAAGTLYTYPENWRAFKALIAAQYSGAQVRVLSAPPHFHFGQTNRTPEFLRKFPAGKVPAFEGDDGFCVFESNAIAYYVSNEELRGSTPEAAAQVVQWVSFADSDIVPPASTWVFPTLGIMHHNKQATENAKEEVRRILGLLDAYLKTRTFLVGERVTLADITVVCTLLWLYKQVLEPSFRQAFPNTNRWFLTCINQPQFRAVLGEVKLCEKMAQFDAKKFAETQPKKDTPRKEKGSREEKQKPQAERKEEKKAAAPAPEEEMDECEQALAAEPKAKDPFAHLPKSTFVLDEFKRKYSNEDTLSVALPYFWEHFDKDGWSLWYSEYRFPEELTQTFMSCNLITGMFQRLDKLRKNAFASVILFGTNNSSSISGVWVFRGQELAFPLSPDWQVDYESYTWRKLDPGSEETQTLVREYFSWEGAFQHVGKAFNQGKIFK
T7 sequence (P20839 whole entry): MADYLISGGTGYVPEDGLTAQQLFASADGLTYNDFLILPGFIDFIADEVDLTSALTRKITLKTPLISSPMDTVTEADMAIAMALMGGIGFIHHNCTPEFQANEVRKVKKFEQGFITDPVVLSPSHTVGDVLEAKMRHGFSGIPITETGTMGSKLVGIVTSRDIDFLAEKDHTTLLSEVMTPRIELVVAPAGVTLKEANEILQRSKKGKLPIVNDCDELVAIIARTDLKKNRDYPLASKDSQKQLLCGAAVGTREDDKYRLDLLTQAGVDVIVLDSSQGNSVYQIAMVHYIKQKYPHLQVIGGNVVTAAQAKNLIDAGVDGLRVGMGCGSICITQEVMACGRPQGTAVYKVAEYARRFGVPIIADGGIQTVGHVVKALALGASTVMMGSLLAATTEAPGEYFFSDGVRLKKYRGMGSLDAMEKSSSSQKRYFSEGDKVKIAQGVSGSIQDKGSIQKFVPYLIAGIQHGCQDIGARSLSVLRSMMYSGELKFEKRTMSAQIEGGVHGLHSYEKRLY

- isoTOP-ABPP ratio, lysine P13804_K139 [1]: 0.9
- isoTOP-ABPP ratio, lysine P52815_K87 [2]: 0.9
Structure (SMILES): O=C(Oc1c(F)c(F)cc(F)c1F)c1cc(C(F)(F)F)cc(C(F)(F)F)c1 [fragment 48, 2,3,5,6-Tetrafluorophenyl 3,5-bis(trifluoromethyl)benzoate]

- R value (DMSO/fragment) for probe 1 labeling ([3]; 50 uM, in vitro): 1.1
Structure (SMILES): O=C(CCc1cn(-c2ccccc2)nc1-c1ccccc1)Oc1c(F)c(F)c(F)c(F)c1F [fragment 19, Pentafluorophenyl 3-(1,3-diphenyl-1H-pyrazol-4-yl)propanoate]

- R value (DMSO/fragment) for probe 1 labeling ([4]; Q16864_K6, 50 uM, 231 sol, in vitro): 1.1
- R value (DMSO/fragment) for probe 1 labeling ([5]; P24941_K33, 231 sol): 1.0
- R value (DMSO/fragment) for probe 1 labeling ([6]; P26641_K227, 50 uM, 231 sol, in vitro): 0.8
- R value (DMSO/fragment) for probe 1 labeling ([3]; 50 uM, in vitro): 1.0
- R value (DMSO/fragment) for probe 1 labeling ([2]; P52815_K87, 50 uM, 231 sol, in vitro): 0.6
Structure (SMILES): O=C(Oc1c(F)c(F)c(F)c(F)c1F)c1cc(C(F)(F)F)cc(C(F)(F)F)c1 [fragment 21, Pentafluorophenyl 3,5-bis(trifluoromethyl)benzoate]

Structure (SMILES): O=C(Oc1ccc([N+](=O)[O-])cc1[N+](=O)[O-])C1CCN(C(=O)OCc2ccccc2)CC1 [fragment 34, 1-Benzyl 4-(2,4-dinitrophenyl) piperidine-1,4-dicarboxylate]
- isoTOP-ABPP ratio (R) at liganded lysine P24941_K33 ([5]; sol, 231): 1.0

- isoTOP-ABPP reactivity ratio at lysine P26641_K227 ([6]; 50 uM, 231 sol, in vitro): 0.8
- isoTOP-ABPP reactivity ratio at lysine Q8TCA0_K43 ([3]; 50 uM, in vitro): 0.8
Structure (SMILES): O=C(CCc1coc2cc(F)ccc2c1=O)Oc1c(F)c(F)c(F)c(F)c1F [fragment 26, Pentafluorophenyl 3-(7-fluoro-4-oxo-4H-chromen-3-yl)propanoate]

- isoTOP-ABPP ratio, lysine P26641_K227 ([6]; 50 uM_231_sol_in vitro): 0.9
- isoTOP-ABPP ratio, lysine P13804_K139 [1]: 1.0
- isoTOP-ABPP ratio, lysine P52815_K87 [2]: 0.9
Structure (SMILES): NC(=O)c1cc(C(F)(F)F)cc(C(F)(F)F)c1 [fragment 51, reference compound]

- isoTOP-ABPP reactivity ratio at lysine P26641_K227 ([6]; 50 uM, 231 sol, in vitro): 1.2
Structure (SMILES): O=C(CN1C(=O)c2ccccc2C1=O)Oc1c(F)c(F)c(F)c(F)c1F [fragment 27, Pentafluorophenyl 2-(1,3-dioxoisoindolin-2-yl)acetate]

Structure (SMILES): Cn1cc(CC(=O)Oc2ccc([N+](=O)[O-])cc2[N+](=O)[O-])c2ccccc21 [fragment 32, 2,4-Dinitrophenyl 2-(1-methyl-1H-indol-3-yl)acetate]
- isoTOP-ABPP reactivity ratio at lysine P13804_K139 ([1]; 50 uM, 231 sol, in vitro): 20.0
- isoTOP-ABPP reactivity ratio at lysine Q8TCA0_K43 ([3]; 50 uM, in vitro): 1.6

Structure (SMILES): O=C(CCc1coc2cc(F)ccc2c1=O)Oc1ccc([N+](=O)[O-])cc1[N+](=O)[O-] [fragment 36, 2,4-Dinitrophenyl 3-(7-fluoro-4-oxo-4H-chromen-3-yl)propanoate]
- isoTOP-ABPP ratio (R) at liganded lysine Q16864_K6 ([4]; 50 uM, in vitro, sol, 231): 1.0
- isoTOP-ABPP ratio (R) at liganded lysine P13804_K139 ([1]; 50 uM, in vitro, sol, 231): 0.7
- isoTOP-ABPP ratio (R) at liganded lysine P20839_K208 ([7]; 50 uM, in vitro, sol, 231): 1.6
- isoTOP-ABPP ratio (R) at liganded lysine Q8TCA0_K43 ([3]; 50 uM, in vitro, sol, 231): 1.1

- isoTOP-ABPP ratio, lysine Q16864_K6 ([4]; 100 uM_231_sol_in vitro): 1.3
- isoTOP-ABPP ratio, lysine P20839_K208 ([7]; 100 uM_231_sol_in vitro): 4.4
- isoTOP-ABPP ratio, lysine Q8TCA0_K43 ([3]; 100 uM_231_sol_in vitro): 14.0
Structure (SMILES): COC(=O)NC(=NC(=O)OCC1c2ccccc2-c2ccccc21)n1cccn1 [fragment 49, N-Methoxycarbonyl-N′-9-fluorenylmethoxycarbonyl-pyrazole-1-carboxamidine]

- R value (DMSO/fragment) for probe 1 labeling ([1]; P13804_K139, 50 uM, 231 sol, in vitro): 1.4
Structure (SMILES): COc1cc(CCC(=O)Oc2c(F)c(F)c(F)c(F)c2F)cc(OC)c1OC [fragment 23, Pentafluorophenyl 3-(3,4,5-trimethoxyphenyl)propanoate]
